Measured values taken from PubChem BioAssay AID330 (DTP/NCI, 2004).
“And” between values parts separate entries of the source, which are not always exact repeats. Equal entries are not always repeated. Toxic doses and inconclusive results are not listed.

Tested on: P388 leukemia ip, CD2F1 mice, survival T/C
Assay: NCI In Vivo Anticancer Drug Screen. Data for tumor model P388 Leukemia (intraperitoneal) in CD2F1 (CDF1) mice
Conditions: endpoint: median survival time, higher = longer survival
Outline: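 Mice carrying the transplanted tumor received test compound or vehicle. Survival was recorded in each group, and the value is the treated-group measurement divided by that of the vehicle-treated control group.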

[1] = dose: 50.0 mg/kg/injection, schedule: Q01DX009 (ip), vehicle: saline with Tween-80
[2] = dose: 100.0 mg/kg/injection, schedule: Q01DX009 (ip), vehicle: saline with Tween-80
[3] = dose: 200.0 mg/kg/injection, schedule: Q01DX009 (ip), vehicle: saline with Tween-80
[4] = dose: 100.0 mg/kg/injection, schedule: Q01DX001 (ip), vehicle: saline with Tween-80
[5] = dose: 60.0 mg/kg/injection, schedule: Q01DX005 (ip), vehicle: Klucel (hydroxypropylcellulose) (HPC)
[6] = dose: 120.0 mg/kg/injection, schedule: Q01DX005 (ip), vehicle: Klucel (hydroxypropylcellulose) (HPC)
[7] = dose: 240.0 mg/kg/injection, schedule: Q01DX005 (ip), vehicle: Klucel (hydroxypropylcellulose) (HPC)
[8] = dose: 50.0 mg/kg/injection, schedule: Q01DX005 (ip), vehicle: saline with Tween-80
[9] = dose: 100.0 mg/kg/injection, schedule: Q01DX005 (ip), vehicle: saline with Tween-80
[10] = dose: 200.0 mg/kg/injection, schedule: Q01DX005 (ip), vehicle: saline with Tween-80
[11] = dose: 200.0 mg/kg/injection, schedule: Q04DX003 (ip), vehicle: Klucel (hydroxypropylcellulose) (HPC)
[12] = dose: 60.0 mg/kg/injection, schedule: Q01DX005 (ip), vehicle: saline with Tween-80
[13] = dose: 120.0 mg/kg/injection, schedule: Q01DX005 (ip), vehicle: saline with Tween-80
[14] = dose: 240.0 mg/kg/injection, schedule: Q01DX005 (ip), vehicle: saline with Tween-80

For `C/C=C1/CN2CCC34c5ccccc5N(C)C23C2CC1C4(C(=O)OC)C(OC(C)=O)O2` (configuration not stated), the T/C (dose: 9.25 mg/kg/injection, schedule: Q01DX005 (ip), vehicle: saline + Tween-80 + alcohol) was 96 % of control, the T/C (dose: 18.5 mg/kg/injection, schedule: Q01DX005 (ip), vehicle: saline + Tween-80 + alcohol) was 106 % of control and the T/C (dose: 37.0 mg/kg/injection, schedule: Q01DX005 (ip), vehicle: saline + Tween-80 + alcohol) was 112 % of control. The T/C (dose: 74.0 mg/kg/injection, schedule: Q01DX005 (ip), vehicle: saline + Tween-80 + alcohol) was 100 % of control.
`CC1=C[S+](c2ccccc2)c2cccc3cc4ccccc4c1c23` (configuration not stated) was tested, and the T/C (dose: 0.62 mg/kg/injection, schedule: Q04DX003 (ip), vehicle: saline) was 100 % of control, the T/C (dose: 1.25 mg/kg/injection, schedule: Q04DX003 (ip), vehicle: saline) was 100 % of control and the T/C (dose: 2.5 mg/kg/injection, schedule: Q04DX003 (ip), vehicle: saline) was 104 % of control.
`COc1ccc2c(c1)[C@@]13CCCCC1[C@@H](C2)N(CC1CC1)CC3` (some centres not stated) was tested, and the T/C (dose: 100.0 mg/kg/injection, schedule: Q01DX001 (ip), vehicle: Klucel (hydroxypropylcellulose) (HPC)) was 100 % of control and the T/C (dose: 200.0 mg/kg/injection, schedule: Q01DX001 (ip), vehicle: Klucel (hydroxypropylcellulose) (HPC)) was 100 % of control.
`CN1C(=O)C/C(=N/Nc2ccccc2)NC1=O` was tested, and the T/C [1] was 95 % of control, the T/C [2] was 100 % of control and the T/C [3] was 92 % of control.
With `COC(=O)C1c2cc(OC)c(OC)cc2C(=O)N2CCc3cc4c(cc3C12)OCO4` (configuration not stated) the T/C (dose: 50.0 mg/kg/injection, schedule: Q04DX003 (ip), vehicle: distilled water + Tween-80) was 100 % of control and 101 % of control, the T/C (dose: 100.0 mg/kg/injection, schedule: Q04DX003 (ip), vehicle: distilled water + Tween-80) was 99 % of control and 105 % of control and the T/C (dose: 200.0 mg/kg/injection, schedule: Q04DX003 (ip), vehicle: distilled water + Tween-80) was 97 % of control and 101 % of control. The T/C (dose: 400.0 mg/kg/injection, schedule: Q04DX003 (ip), vehicle: distilled water + Tween-80) was 104 % of control and 100 % of control.
For `CC1(C)CN(C(C)(C)C)CC(C)(C)C(O)C1=O` (configuration not stated), the T/C [4] was 100 % of control, the T/C (dose: 200.0 mg/kg/injection, schedule: Q01DX001 (ip), vehicle: saline with Tween-80) was 118 % of control and the T/C (dose: 400.0 mg/kg/injection, schedule: Q01DX001 (ip), vehicle: saline with Tween-80) was 104 % of control.
With `Cc1cc2c(cc1C)NC1=C(N2)OC(c2c3ccccc3cc3ccccc23)C1=O` (configuration not stated) the T/C [5] was 92 % of control, the T/C [6] was 88 % of control and the T/C [7] was 90 % of control.
`O=S(=O)(OCC(COS(=O)(=O)c1ccccc1)(OS(=O)(=O)c1ccccc1)OS(=O)(=O)c1ccccc1)c1ccccc1` was tested, and the T/C (dose: 100.0 mg/kg/injection, schedule: Q01DX009 (ip), vehicle: Klucel (hydroxypropylcellulose) (HPC)) was 105 % of control, the T/C (dose: 200.0 mg/kg/injection, schedule: Q01DX009 (ip), vehicle: Klucel (hydroxypropylcellulose) (HPC)) was 104 % of control and the T/C (dose: 400.0 mg/kg/injection, schedule: Q01DX009 (ip), vehicle: Klucel (hydroxypropylcellulose) (HPC)) was 100 % of control.
In the case of `Cc1noc(/C=C\c2ccccc2O)c1[N+](=O)[O-]`, the T/C [8] is reported as 92 % of control, the T/C [9] is reported as 99 % of control and the T/C [10] is reported as 97 % of control.
For `Cc1n[nH]c(=O)c2ccccc12`, the T/C (dose: 100.0 mg/kg/injection, schedule: Q04DX003 (ip), vehicle: saline with Tween-80) was 91 % of control, the T/C (dose: 200.0 mg/kg/injection, schedule: Q04DX003 (ip), vehicle: saline with Tween-80) was 99 % of control and the T/C (dose: 400.0 mg/kg/injection, schedule: Q04DX003 (ip), vehicle: saline with Tween-80) was 107 % of control.
With `CC[n+]1ccc(Nc2ccc(NC(=O)c3ccc(Nc4cc[n+](CC)c5ccc([N+](=O)[O-])cc45)cc3)cc2)cc1` the T/C (dose: 11.0 mg/kg/injection, schedule: Q01DX009 (ip), vehicle: Klucel (hydroxypropylcellulose) (HPC)) was 162 % of control and 200 % of control, the T/C (dose: 16.0 mg/kg/injection, schedule: Q01DX009 (ip), vehicle: Klucel (hydroxypropylcellulose) (HPC)) was 215 % of control and the T/C (dose: 16.5 mg/kg/injection, schedule: Q01DX009 (ip), vehicle: Klucel (hydroxypropylcellulose) (HPC)) was 226 % of control. The T/C (dose: 22.0 mg/kg/injection, schedule: Q04DX003 (ip), vehicle: saline) was 175 % of control, the T/C (dose: 24.0 mg/kg/injection, schedule: Q01DX009 (ip), vehicle: Klucel (hydroxypropylcellulose) (HPC)) was 200 % of control and the T/C (dose: 25.0 mg/kg/injection, schedule: Q04DX003 (ip), vehicle: saline) was 154 % of control. The T/C (dose: 33.0 mg/kg/injection, schedule: Q04DX003 (ip), vehicle: saline) was 175 % of control and the T/C (dose: 50.0 mg/kg/injection, schedule: Q04DX003 (ip), vehicle: saline) was 180 % of control.
In the case of `COC1=C(OC)C(=O)C2=C(OCCO2)C1=O`, the T/C (dose: 25.0 mg/kg/injection, schedule: Q01DX001 (ip), vehicle: saline with Tween-80) is reported as 109 % of control, the T/C (dose: 50.0 mg/kg/injection, schedule: Q01DX001 (ip), vehicle: saline with Tween-80) is reported as 106 % of control and the T/C [4] is reported as 107 % of control.
With `O=P(O/C(=C\c1ccccc1)c1ccccc1)(c1ccccc1)c1ccccc1` the T/C [5] was 91 % of control, the T/C [6] was 90 % of control and the T/C [7] was 90 % of control.
In the case of `Cc1ccc2c(C)cc(=O)oc2c1`, the T/C (dose: 100.0 mg/kg/injection, schedule: Q04DX003 (ip), vehicle: saline) is reported as 102 % of control, the T/C (dose: 200.0 mg/kg/injection, schedule: Q04DX003 (ip), vehicle: saline) is reported as 105 % of control and the T/C (dose: 400.0 mg/kg/injection, schedule: Q04DX003 (ip), vehicle: saline) is reported as 108 % of control.
With `CC1CCCCN1c1cc2nc[nH]c(=O)c2cc1[N+](=O)[O-]` (configuration not stated) the T/C (dose: 100.0 mg/kg/injection, schedule: Q04DX003 (ip), vehicle: Klucel (hydroxypropylcellulose) (HPC)) was 108 % of control, the T/C [11] was 99 % of control and the T/C (dose: 400.0 mg/kg/injection, schedule: Q04DX003 (ip), vehicle: Klucel (hydroxypropylcellulose) (HPC)) was 100 % of control.
In the case of `Cc1cc(=O)c2ccc3c(c2[nH]1)Oc1ccc2c(=O)cc(C)[nH]c2c1O3`, the T/C [8] is reported as 98 % of control, the T/C [9] is reported as 101 % of control and the T/C [10] is reported as 98 % of control.
In the case of `CCOc1ccc(NC(=O)OCCN2CCN(CCc3ccccc3)C(C)C2)cc1` (configuration not stated), the T/C (dose: 12.5 mg/kg/injection, schedule: Q01DX009 (ip), vehicle: saline with Tween-80) is reported as 97 % of control, the T/C (dose: 25.0 mg/kg/injection, schedule: Q01DX009 (ip), vehicle: saline with Tween-80) is reported as 94 % of control and the T/C [1] is reported as 100 % of control.
`O=S(=O)(/C=C/c1ccc(F)cc1)Cc1ccccc1` was tested, and the T/C [8] was 92 % of control, the T/C [9] was 92 % of control and the T/C [10] was 90 % of control.
For `O=C(O)C1CCC[N-]C1.O=C(O)C1CCC[N-]C1.[Cl][Pt+2][Cl]` (configuration not stated), the T/C (dose: 5.0 mg/kg/injection, schedule: Q01DX009 (ip), vehicle: saline with Tween-80) was 100 % of control, the T/C (dose: 10.0 mg/kg/injection, schedule: Q01DX009 (ip), vehicle: saline with Tween-80) was 104 % of control and the T/C (dose: 20.0 mg/kg/injection, schedule: Q01DX009 (ip), vehicle: saline with Tween-80) was 109 % of control.
`CCN(CC)c1ccc2cc(-c3nc4ccccc4n3C)c(=O)oc2c1` was tested, and the T/C [11] was 183 % of control.
For `O=C1CSC(=S)N1CCCN1CCOCC1`, the T/C [1] was 104 % of control, the T/C [2] was 106 % of control and the T/C [3] was 101 % of control.
In the case of `CCC(C)/C(=C\C#N)NCCCCCCN/C(=C/C#N)C(C)CC` (configuration not stated), the T/C (dose: 15.0 mg/kg/injection, schedule: Q01DX005 (ip), vehicle: Klucel (hydroxypropylcellulose) (HPC)) is reported as 95 % of control, the T/C (dose: 30.0 mg/kg/injection, schedule: Q01DX005 (ip), vehicle: Klucel (hydroxypropylcellulose) (HPC)) is reported as 86 % of control and the T/C [5] is reported as 90 % of control. The T/C [7] was 91 % of control.
In the case of `Cc1cc(=O)[nH]c2cc(NN)ccc12`, the T/C [12] is reported as 96 % of control, the T/C [13] is reported as 92 % of control and the T/C [14] is reported as 95 % of control.
`Cc1cc(Cl)c2cc3c(cc2n1)CCCC3` was tested, and the T/C [5] was 102 % of control and the T/C [6] was 109 % of control.
With `CCC[CH2][Sn]([CH2]CCC)([N]=C=S)[N]=C=S` the T/C (dose: 0.78 mg/kg/injection, schedule: Q01DX009 (ip), vehicle: saline) was 108 % of control, the T/C (dose: 1.56 mg/kg/injection, schedule: Q01DX009 (ip), vehicle: saline) was 100 % of control and the T/C (dose: 3.12 mg/kg/injection, schedule: Q01DX009 (ip), vehicle: saline) was 100 % of control.
With `Cc1ccc(/C=N/NC(=O)CNC(=O)c2ccccc2)cc1` the T/C [12] was 97 % of control, the T/C [13] was 92 % of control and the T/C [14] was 97 % of control.
